Test: In vitro release of TC or Rh in simulated body fluid (SBF) from alkylsilane-coated Mg discs
Assay type: physicochemical
Settings: alkylsilane coated Mg disks incubated in SBF, room temperature, 21 day period, sampled every two days; FIG. 1; one way ANOVA highly significant
Method: Self-assembled hybrid […] (AS) films on Mg were prepared using a dip-coating technique. The precursor solution was prepared by mixing 0.25 ml (0.73 mM) of […]) (Alfa Aesar, Ward Hill, MA, USA), 0.43 ml (2.92 mM) of […]) (Alfa Aesar, Ward Hill, MA, USA), 2 ml (0.032 mM) of ethanol and 0.25 ml of 0.010 mM HCl (aq.). […] Both the solutions were kept in the dark to avoid contact with light The Mg discs passivated with NaOH were dip coated in the TC- or Rh-containing solution for 1 minute, and dried in air for 10 minutes at room temperature in the dark. The discs were subsequently dried in an incubator at 37° C. for 24 hours to remove any trace amounts of organic solvents. […] Every two days, 150 μl of SBF was taken from each tube and concentrations of Tc and Rh were determined spectroscopically. The concentrations of TC or Rh were determined by measuring absorbance at 280 nm for TC, and fluorescence at excitation/emission wavelengths of 525/555 nm for Rh using a Synergy H1 microplate reader (BioTek instruments, Winooski, VT, USA). Standard curves were created by measuring absorbance and fluorescence intensities of the series of TC and Rh samples of known concentrations. Absorbance and Fluorescence intensity of each sample was calculated as an average of three separate readings. […] Cumulative release of TC or Rh over 21 day period was determined.

rhodamine
concentration in SBF media (cumulative release): incremental increase

— patent publication US12303621B2, “Use of self-assembled alkylsilane coatings for drug delivery applications” (priority 2017, dated 2025)
